Assay results as given in BindingDB's records for doi:10.1016/s0960-894x(99)00332-7 (Warner-Lambert, 1999).

Key:
[1] = molecular target: T1, Human immunodeficiency virus type 1 protease (Human immunodeficiency virus 1, UniProt Q72874); assay: ChEBML_79977; conditions: pH 4.7
Procedure: Inhibitory activity was evaluated against human immunodeficiency virus type 1(HIV-1) protease at pH 4.7

[2] = molecular target: T1, Human immunodeficiency virus type 1 protease; assay: Inhibitory activity was evaluated against human immunodeficiency virus type 1(HIV-1) protease at pH 6.2

Compound | IC50 [1] [nM] | IC50 [2] [nM]
CCc1c(SC2C(=O)CC(CCc3ccccc3)(c3ccccc3)OC2=O)sc2ccccc12 (centres undefined) [3-(3-Ethyl-benzo[b]thiophen-2-ylsulfanyl)-4-hydroxy-6-phenethyl-6-phenyl-5,6-dihydro-pyran-2-one] | 28 | –
CC(C)(C)c1cc2c(cc1SC1C(=O)CC(CCc3ccccc3)(c3ccccc3)OC1=O)CCCC2 (centres undefined) [3-(3-tert-Butyl-5,6,7,8-tetrahydro-naphthalen-2-ylsulfanyl)-4-hydroxy-6-phenethyl-6-phenyl-5,6-dihydro-pyran-2-one] | 28 | –
CC(C)(C)c1oc2ccccc2c1SC1C(=O)CC(CCc2ccccc2)(c2ccccc2)OC1=O (centres undefined) [3-(2-tert-Butyl-benzofuran-3-ylsulfanyl)-4-hydroxy-6-phenethyl-6-phenyl-5,6-dihydro-pyran-2-one] | – | 211
CC(C)(C)c1cc2c(cc1SC1C(=O)CC(CCc3ccccc3)(c3ccccc3)OC1=O)CCC2 (centres undefined) [3-(6-tert-Butyl-indan-5-ylsulfanyl)-4-hydroxy-6-phenethyl-6-phenyl-5,6-dihydro-pyran-2-one] | – | 130
